The test system of data set [1] is C. albicans laboratory strain and clinical isolates. Briefly: Biofilm formation, crystal violet assay. Type of data set: cell-based, Candida albicans. As to the method: In order to evaluate the antifungal effects of the Pom-1 derivatives combined with amphotericin B or fluconazole on biofilm formation, a crystal violet assay was performed[84],[85]. For this, 2.5 × 10^4 yeast cells/mL were incubated in 200 µL of RPMI-1640 medium supplemented with amphotericin B, fluconazole and Pom-1 to Pom-1 F in flat-bottomed polystyrene microtiter plates with 96 wells for 24 h at 37 °C without agitation. Subsequently, the planktonic phase was removed, the remaining cells attached to the wells were washed twice with 200 µL of demineralized water and exposed to 200 µL of 0.1% (w/v) crystal violet solution for 15 min. Afterwards, the solution was removed and the cells were washed again twice with 200 µL of demineralized water and the plates were left to dry for 24 h at 25 °C. To dissolve the stain, 200 µL of 30% acetic acid was added and transferred to a new plate after 15 min. […] By comparing the resulting data against the untreated controls, the efficacy of the agents could be assessed.

In data set [2] the test system is C. albicans clinical isolate 23. Briefly: Resazurin viability assay of clinical isolate 23. In kind it is cell-based, Candida albicans. The conditions noted are these: antifungal alone at 1x ED. The method, then: The viability of C. albicans cells was assessed following the guidelines of the Clinical and Laboratory Standards Institute (M27-A3)[86]. Accordingly, 2.5 × 10^4 yeast cells/mL were cultured in 200 µL of RPMI-1640 medium in the presence of peptide (Pom-1 to Pom-1 F) and amphotericin B or fluconazole in different concentrations (0.1x ED/MBIC and 0.5x ED/MBIC) in flat-bottomed polystyrene microtiter plates with 96 wells (Sarstedt AG and Co. KG, Nümbrecht, Germany) at 37 °C with shaking at 900 rpm on an Eppendorf shaker. The quantification of viable yeast cells was carried out using a Resazurin-Reduction-Assay[86]. Accordingly, the cells were exposed to 20 µL of a 0.15 mg/mL resazurin solution for 2 h and subsequently the amount of converted resorufin was determined with fluorescence measurements at an excitation wavelength of 535 and an emission of 595 nm with a Tecan infinite F200 microplate reader (Tecan Group Ltd., Männedorf, Switzerland).
Figure S4. Inherent resilience to aggregation by isolate 23 and marginal reduction of viability by further raised concentrations of antifungal and peptide combinations. (A) Microscopic analysis using a Leica DMi8 coded (Leica Microsystems CMS GmbH, Wetzlar, Germany) microscope of C. albicans laboratory strain and clinical isolate 23 with and without treatment with Pom-1. The pictures were taken after an incubation time of 2 h. […]

In data set [3] the test system is C. albicans laboratory strain and clinical isolates. Kind of data set: Resazurin reduction viability assay of planktonic cells. Type of data set: cell-based, Candida albicans. The following applies: for strains whose viability could not be reduced to zero: 1x ED: 2 µg/mL amphotericin B, 8 µg/mL fluconazole. As to the method: KG, Nümbrecht, Germany) at 37 °C with shaking at 900 rpm on an Eppendorf shaker. The quantification of viable yeast cells was carried out using a Resazurin-Reduction-Assay[86]. Accordingly, the cells were exposed to 20 µL of a 0.15 mg/mL resazurin solution for 2 h and subsequently the amount of converted resorufin was determined with fluorescence measurements at an excitation wavelength of 535 and an emission of 595 nm with a Tecan infinite F200 microplate reader (Tecan Group Ltd., Männedorf, Switzerland).
On the technique in general: Alamar Blue is a resazurin reagent that responds to reducing activity.

Data set [4] has as its system A549 cells. Briefly: Resazurin viability assay for cell culture (A549). The following applies: detergent cell lysis control. Type of data set: cell-based, human. As to the method: (§1) Adenocarcinomic human alveolar basal epithelial cells (A549) (purchased from the ATCC, Manassas, VA, USA, CRM-CCL-185)[67] and human dermal fibroblasts (HDFs) (purchased from tebu-bio GmbH, Offenbach, Germany) were used[68] for the experiments. Cultivation was conducted in DMEM with FBS (10% (w/v), 15% (w/v)), MEM NEAAs (1% (w/v)), and penicillin–streptomycin (100 U/mL, 1% (w/v)) at 37 °C in an incubator containing 5% CO2. To detect the viability of human cells, a resazurin reduction assay was performed. For this, 2 × 10^4 cells per well of a 96-well plate were incubated in 200 µL DMEM with additives at 37 °C and 5% CO2. After removing the medium, 100 µL of the medium and 100 µL of a peptide/antifungal solution (2.5 µg/mL, 25 µg/mL) were added. After incubation for 24 h at 37 °C and 5% CO2, 20 µL of a resazurin solution (0.15 mg/mL) were added into each well, and the cells were incubated again for 24 h at 37 °C and 5% CO2. Fluorescence measurement (excitation wavelength—535 nm, emission wavelength—595 nm) of the converted resorufin was then performed using a Tecan Infinite F200 microplate reader (Tecan Group Ltd., Männedorf, Switzerland).

Data set [5] concerns human dermal fibroblasts (HDF). Briefly: Resazurin viability assay for cell culture (HDF). Type of data set: cell-based. The conditions noted are these: detergent cell lysis control. As to the method:
as §1

For data set [6], the system named is C. albicans reference strain. Briefly: Permeabilization assay with fluorescent dyes of increasing size. Type of data set: cell-based, Candida albicans. The conditions noted are these: FITC, propidium iodide, ATTO 488 alkyne, rhodamine phalloidin; Pom-1 or Cm-p5 at 2.5 µg/mL and 10 µg/mL, 2 h, 37 °C; Triton X-100 0.2% (w/v) solution, last 10 min; fluorescence; triplicate. As to the method: For this, 2.5 × 10^4 cells/mL of the C. albicans reference strain were incubated in 200 µL of RPMI-1640 medium supplemented with either Pom-1 or Cm-p5 at final concentrations of 2.5 µg/mL and 10 µg/mL and incubated for 2 h at 37 °C. For the positive control, 100 µL of a 0.2% (w/v) solution of Triton X-100 was added 10 min prior to the end of the 2 h incubation time and for the negative control, no agent was added (untreated). After incubation, the tubes were centrifuged at 11,000 ×g and the supernatant was discarded. Afterwards, the cells were washed with once with PBS and after addition of 5 µL dye and 195 µL PBS (final concentration of dye: 5 µL/mL) the cell suspension was centrifuged at 11,000 ×g for 2 min. […] Subsequently the yeast cells were washed 3x with PBS, resuspended in 200 µL of PBS and pipetted into flat-bottomed polystyrene microtiter plates with 96 wells (Sarstedt AG and Co. KG, Nümbrecht, Germany) and fluorescence measurements were conducted at an excitation wavelength of 498 nm (FITC), 535 nm (propidium iodide), 500 nm (Atto488), and 540 nm (rhodamine phalloidin) and an emission of 517 nm (FITC), 617 nm (propidium iodide), 520 nm (Atto488), 565 nm (rhodamine phalloidin) with a Tecan infinite F200 microplate reader (Tecan Group Ltd., Männedorf, Switzerland). […]

The results in this text go back to article PMC12241370, “Anti-biofilm peptides can rescue fluconazole and amphotericin B efficacies against Candida albicans” (Scientific Reports, 2025).

Consider `C[C@@H]1[C@H](O)[C@@H](C)/C=C/C=C/C=C/C=C/C=C/C=C/C=C/[C@H](O[C@@H]2O[C@H](C)[C@@H](O)[C@H](N)[C@@H]2O)C[C@@H]2O[C@](O)(C[C@@H](O)C[C@@H](O)[C@H](O)CC[C@@H](O)C[C@@H](O)CC(=O)O[C@H]1C)C[C@H](O)[C@H]2C(=O)O` [amphotericin B], for which the “strains with complete biofilm inhibition (death count)” value was “totally failed” in data set [1] (amphotericin B only, 0.1x ED) and 2 of 21 in data set [1] (antifungal only, 0.5x ED). Further, the “strains with complete biofilm inhibition” value in data set [1] (antifungal only, 0.5x ED, 21 strains) is given as 9.5%. The “strains with complete inhibition of biofilms” value in data set [1] (antifungal only, 1x ED (2 µg/mL), 21 strains) is 52%. For the same molecule, the “strains with complete inhibition of biofilms (death count)” value in data set [1] (antifungal only, 1x ED (2 µg/mL), crystal violet, 24 h, 37 °C, triplicate) is 11 of 21. Besides, in data set [2], the “effect on isolate 23” value is recorded as “unaffected”. Moreover, in data set [3], the “strains whose viability could not be reduced to zero” value is recorded as 21 of 28 strains. The strains killed completely in data set [3] (amphotericin B only, 0.5x ED, planktonic cells, 28 strains) came to 7%. The “isolates against which fully active (zero viability)” value in data set [3] (amphotericin B only, 1x ED (2 µg/mL), planktonic cells, 28 strains) stood at 25%. The “isolates against which fully active (death count)” value in data set [3] (amphotericin B only, 1x ED (2 µg/mL), planktonic cells, resazurin, triplicate) was 7 of 28.
As for `OC(Cn1cncn1)(Cn1cncn1)c1ccc(F)cc1F` [fluconazole], the “effect on isolate 23” value in data set [2] is reported as “unaffected”. Further, the “strains whose viability could not be reduced to zero” value in data set [3] is given as 12 of 28 strains. Also, the “isolates with viability reduction (death count)” value in data set [3] (fluconazole only, 0.1x ED) is on record as 3 isolates of 28. In addition, in data set [3] (fluconazole only, 1x ED (8 µg/mL), 28 strains), the “ratio of completely killed C. albicans isolates” value worked out at 57%.
Consider Triton X-100, for which the “cell viability of A549 cells” value in data set [4] is on record as “zero”. Further, the “cell viability of HDF cells” value in data set [5] was “zero”. The “permeabilization of C. albicans cells for fluorescent dyes” value in data set [6] was “permeabilized Candida cells for all dyes”.
